Measured values reported in ChEMBL document CHEMBL1136287, “Synthesis and testing of novel phenyl substituted side-chain analogues of classical cannabinoids” (Bioorg Med Chem Lett, 2003).

Tests used:
Cannabinoid receptor 1 [1] = biological target: T1, Cannabinoid receptor 1 (Homo sapiens, UniProt P21554); assay: Binding affinity towards Cannabinoid receptor 1 using CP-55940 as radioligand in HEK293 EBNA cells; assay type: cell-based
Cannabinoid receptor 2 [2] = biological target: T2, Cannabinoid receptor 2 (Homo sapiens, UniProt P34972); assay: Binding affinity towards Cannabinoid receptor 2 using CP-55940 as radioligand in HEK293 EBNA cells; assay type: cell-based
T2 sequence (P34972 whole entry): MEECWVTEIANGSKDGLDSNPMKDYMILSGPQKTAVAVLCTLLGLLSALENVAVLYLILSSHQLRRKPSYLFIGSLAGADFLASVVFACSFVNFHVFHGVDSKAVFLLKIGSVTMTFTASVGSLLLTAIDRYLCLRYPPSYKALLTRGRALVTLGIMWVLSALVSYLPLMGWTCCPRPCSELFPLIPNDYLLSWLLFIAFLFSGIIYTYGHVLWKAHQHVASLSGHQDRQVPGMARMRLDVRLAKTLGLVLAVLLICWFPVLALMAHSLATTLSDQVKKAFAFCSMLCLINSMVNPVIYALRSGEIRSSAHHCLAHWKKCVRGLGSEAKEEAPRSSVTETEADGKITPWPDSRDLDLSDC

Cannabinoid receptor 1 [3] = biological target: T1, Cannabinoid receptor 1; assay: Binding affinity towards Cannabinoid receptor 1
Cannabinoid receptor 2 [4] = biological target: T2, Cannabinoid receptor 2; assay: Binding affinity towards Cannabinoid receptor 2

T1 sequence (P21554 whole entry): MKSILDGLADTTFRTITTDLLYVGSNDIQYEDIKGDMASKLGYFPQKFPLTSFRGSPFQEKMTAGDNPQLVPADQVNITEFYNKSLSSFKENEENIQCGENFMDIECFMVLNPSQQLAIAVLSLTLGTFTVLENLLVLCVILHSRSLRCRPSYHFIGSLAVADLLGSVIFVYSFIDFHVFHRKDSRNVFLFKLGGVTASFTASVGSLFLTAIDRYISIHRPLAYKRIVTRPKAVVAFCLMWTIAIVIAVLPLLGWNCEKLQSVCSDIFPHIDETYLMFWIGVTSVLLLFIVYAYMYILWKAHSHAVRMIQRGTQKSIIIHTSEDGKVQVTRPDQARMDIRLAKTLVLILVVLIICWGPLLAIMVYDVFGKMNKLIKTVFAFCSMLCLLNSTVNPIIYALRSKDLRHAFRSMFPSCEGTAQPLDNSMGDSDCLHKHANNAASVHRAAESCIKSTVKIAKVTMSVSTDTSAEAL

CC1=CC[C@@H]2[C@@H](C1)c1c(O)cc(C(C)(C)C3CCCCC3)cc1OC2(C)C
Ki (Cannabinoid receptor 1 [1]): 0.57 nM | Ki (Cannabinoid receptor 2 [2]): 0.65 nM

CC1=CC[C@@H]2[C@@H](C1)c1c(O)cc(C3(C4CCCCC4)SCCS3)cc1OC2(C)C
Ki (Cannabinoid receptor 1 [3]): 1.86 nM | Ki (Cannabinoid receptor 2 [4]): 1.05 nM

CC1=CC[C@@H]2[C@@H](C1)c1c(O)cc(C(C)(C)c3ccccc3)cc1OC2(C)C
Ki (Cannabinoid receptor 1 [1]): 12.3 nM | Ki (Cannabinoid receptor 2 [2]): 0.91 nM

CC1=CC[C@@H]2[C@@H](C1)c1c(O)cc(C3(c4ccccc4)SCCS3)cc1OC2(C)C
Ki (Cannabinoid receptor 1 [1]): 17.3 nM | Ki (Cannabinoid receptor 2 [2]): 17.6 nM

CC1=CC[C@@H]2[C@@H](C1)c1c(O)cc(Cc3ccccc3)cc1OC2(C)C
Ki (Cannabinoid receptor 1 [1]): 67.6 nM | Ki (Cannabinoid receptor 2 [2]): 85.9 nM
